Holding throughout (format): in vivo
The subject of one data set is Myzus persicae. Put plainly: Myzus persicae - Test (sprayed cabbage leaves). The conditions noted are these: single compound; for mortality at 500 g/ha / Mortality in % after 6d: 500 g/ha. How it is done:
(§1) Solvent: 78 parts by weight of acetone • • 1.5 parts by weight of dimethylformamide Emulsifier: 0.5 parts by weight of alkylaryl polyglycole-ether
(§2) To produce a suitable preparation of active compound, 1 part by weight of active compound is mixed with the stated amount of solvent and emulsifier, and the concentrate is diluted with emulsifier-containing water to the desired concentration.
Cabbage leaves (Brassica oleracea) which are heavily infested by the green peach aphid (Myzus persicae) are treated by being sprayed with the preparation of the active compound at the desired concentration. After the specified period of time, the mortality in % is determined 100% means that all the aphids have been killed; 0% means that none of the aphids have been killed.

A further data set concerns Tetranychus urticae. Put plainly: Tetranychus urticae - Test (OP-resistant, bean plants). Particulars: 144 h, single compound, 6 d, read-out: Mortality in % after 6d. How it is done:
as §1, §2
Bean plants (Phaseolus vulgaris) which are heavily infested with all stages of the two-spotted spider mite (Tetranychus urticae) are treated by being sprayed with the preparation of the active compound at the desired concentration.
After the specified period of time, mortality in % is determined 100% means that all the spider mites have been killed; 0% means that none of the spider mites have been killed.

A further data set concerns Spodoptera frugiperda. The data set is described as follows: Spodoptera frugiperda - Test (sprayed cabbage leaves). Particulars: 500 g/ha, single compound. The procedure:
as §1, §2
Cabbage leaves (Brassica oleracea) are treated by being sprayed with the preparation of the active compound at the desired concentration and are infested with larvae of the fall army worm (Spodoptera frugiperda) as long as the leaves are still moist.
After the specified period of time, the mortality in % is determined 100% means that all the caterpillars have been killed; 0% means that none of the caterpillars have been killed.

For a further data set, the system named is Phaedon cochleariae. Put plainly: Phaedon cochleariae Larven - Test (sprayed cabbage leaves). The conditions noted are these: 144 h, single compound, 6 d, read-out: Mortality in % after 6d. How it is done:
as §1, §2
Cabbage leaves (Brassica oleracea) are treated by being sprayed with the preparation of the active compound at the desired concentration and are infested with larvae of the mustard beetle (Phaedon cochleariae) as long as the leaves are still moist.
After the specified period of time, the mortality in % is determined 100% means that all the beetle larvae have been killed; 0% means that none of the beetle larvae have been killed.

Setting [1] is: Myzus persicae, 144 h, 6 d, read-out: Mortality in % after 6d.

SMILES strings stand for the structures.

`COC(=O)C(C)N(C(=O)Cc1ccccc1)c1c(C)cccc1C` (stereo not shown) [Benalaxyl]: in the data set with Myzus persicae (setting [1]), the mortality (in general, the share of the test organisms that died) at 500 g/ha amounted to 0%.
With `CC1(C(=O)Nc2ccc(O)c(Cl)c2Cl)CCCCC1` [Fenhexamid], the mortality at 500 g/ha with Myzus persicae (setting [1]) and in the data set with Tetranychus urticae was 0% throughout.
Regarding `O=C(NCc1ncc(C(F)(F)F)cc1Cl)c1c(Cl)cccc1Cl` [Fluopicolide], the “Mortality in % after 6d” value in the data set with Myzus persicae was found to be 0%.
Take `CCO[PH](=O)O` [Fosetyl AL]: the “Mortality in % after 6d” value in the data set on Myzus persicae was determined as 0%.
Take `N#Cc1ccccc1NC(=O)c1snc(Cl)c1Cl` [Isotianil]: the “Mortality in % after 6d” value with Spodoptera frugiperda stood at 0%.
For the molecule `COCC(=O)N(c1c(C)cccc1C)C(C)C(=O)OC` (stereo not shown) [Metalaxyl], the mortality at 500 g/ha in the data set on Phaedon cochleariae (500 g/ha) was found to be 0%.
Consider `CCCN(CCOc1c(Cl)cc(Cl)cc1Cl)C(=O)n1ccnc1` [Prochloraz], for which the mortality at 500 g/ha in the data set with Myzus persicae (setting [1]) amounted to 0%.
Take `CN(C)C(=S)SSC(=S)N(C)C` [Thiram]: the mortality at 500 g/ha in the data set on Myzus persicae (setting [1]) is 0%.
`Cc1ccc(N(SC(F)(Cl)Cl)S(=O)(=O)N(C)C)cc1` [Tolyfluanid]: in the data set with Tetranychus urticae, the mortality at 500 g/ha came out at 0%.
On to `CC1(C)[C@H](C=C(Cl)Cl)[C@H]1C(=O)OCc1c(F)c(F)cc(F)c1F` [Transfluthrin], for which the mortality at 20 g/ha in the data set with Myzus persicae (Myzus persicae, 144 h, 20 g/ha, 6 d, read-out: Mortality in % after 6d) turned out to be 0%; in the data set on Phaedon cochleariae (20 g/ha) it was 50%. The mortality at 100 g/ha in the data set with Tetranychus urticae (100 g/ha) amounted to 0%.

(Values after US20110152079A1, “Pesticidal Compound Mixtures” (BAYER CROPSCIENCE AG, priority 2009, published 2011).)
